Active and inactive are the calls of the source. No cut-off for these calls is given here.
How the values were obtained:
A549 [1] = test: Induction of apoptosis in human A549 cells assessed as caspase-3 p17/19 active fragment generation at 40 uM after 24 hrs by Western blot analysis; type: functional, cell-based
A549 [2] = test: Induction of apoptosis in human A549 cells assessed as cell death at 80 uM after 24 hrs by Annexin V-FITC/propidium iodide staining based flow cytometry; type: functional
A549 [3] = test: Induction of necrosis in human A549 cells at >20 uM after 24 hrs by Annexin V-FITC/propidium iodide staining based flow cytometry; type: functional, cell-based
A549 [4] = test: Induction of apoptosis in human A549 cells assessed as increase in necrotic cells at 40 to 80 uM incubated for 24 hrs by Annexin V-FITC/propidium iodide staining based flow cytometry relative to control; type: functional
A549 [5] = test: Cytotoxicity against human A549 cells assessed as reduction in cell viability after 72 hrs by MTT assay; type: functional, cell-based; details: A549, 72 h
A549 [6] = test: Induction of apoptosis in human A549 cells assessed as increase in PARP cleavage at 40 uM after 24 hrs by Western blot analysis; type: functional, cell-based
A549 [7] = test: Induction of apoptosis in human A549 cells assessed as necrotic cells up to 80 uM incubated for 24 hrs by Annexin V-FITC/propidium iodide staining based flow cytometry; type: functional, cell-based
A549 [8] = test: Induction of apoptosis in human A549 cells assessed as increase in PARP cleavage at 80 uM after 24 hrs by Western blot analysis; type: functional, cell-based
A549 [9] = test: Induction of apoptosis in human A549 cells assessed as increase in apoptotic cells up to 40 uM incubated for 24 hrs by Annexin V-FITC/propidium iodide staining based flow cytometry; type: functional, cell-based
A549 [10] = test: Induction of apoptosis in human A549 cells assessed as cell death up to 40 uM after 24 hrs by Annexin V-FITC/propidium iodide staining based flow cytometry; type: functional
A549 [11] = test: Induction of apoptosis in human A549 cells assessed as caspase-3 p17/19 active fragment generation at 80 uM after 24 hrs by Western blot analysis; type: functional, cell-based
A549 [12] = test: Induction of apoptosis in human A549 cells assessed as increase in apoptotic cells at 80 uM incubated for 24 hrs by Annexin V-FITC/propidium iodide staining based flow cytometry; type: functional, cell-based
[13] = Solubility of compound in water; type: physicochemical; details: buffer
A549 [14] = test: Cytotoxicity against human A549 cells at 1.56 to 100 uM after 72 hrs by MTT assay; type: functional, cell-based
[15] = biological target: Tumour suppressor p53/oncoprotein Mdm2 (Homo sapiens) (UniProt P04637+Q00987); test: Inhibition of MDM2/P53 interaction in human A549 cells assessed as increase in p53 level at 10 to 20 uM after 24 hrs by Western blot analysis; type: cell-based
Chain of Tumour suppressor p53/oncoprotein Mdm2 (Homo sapiens) (P04637 whole entry, looked up): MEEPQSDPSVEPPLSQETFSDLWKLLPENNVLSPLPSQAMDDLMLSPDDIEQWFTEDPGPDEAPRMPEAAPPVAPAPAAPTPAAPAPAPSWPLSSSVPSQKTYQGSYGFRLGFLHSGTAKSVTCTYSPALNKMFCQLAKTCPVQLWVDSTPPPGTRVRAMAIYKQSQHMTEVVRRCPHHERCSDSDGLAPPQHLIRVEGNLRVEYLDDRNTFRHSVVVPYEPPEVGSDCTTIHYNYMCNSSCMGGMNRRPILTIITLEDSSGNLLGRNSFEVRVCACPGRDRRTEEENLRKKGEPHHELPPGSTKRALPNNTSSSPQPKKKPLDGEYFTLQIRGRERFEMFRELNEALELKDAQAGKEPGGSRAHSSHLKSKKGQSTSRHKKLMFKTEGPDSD
Chain of Tumour suppressor p53/oncoprotein Mdm2 (Homo sapiens) (Q00987 whole entry, looked up): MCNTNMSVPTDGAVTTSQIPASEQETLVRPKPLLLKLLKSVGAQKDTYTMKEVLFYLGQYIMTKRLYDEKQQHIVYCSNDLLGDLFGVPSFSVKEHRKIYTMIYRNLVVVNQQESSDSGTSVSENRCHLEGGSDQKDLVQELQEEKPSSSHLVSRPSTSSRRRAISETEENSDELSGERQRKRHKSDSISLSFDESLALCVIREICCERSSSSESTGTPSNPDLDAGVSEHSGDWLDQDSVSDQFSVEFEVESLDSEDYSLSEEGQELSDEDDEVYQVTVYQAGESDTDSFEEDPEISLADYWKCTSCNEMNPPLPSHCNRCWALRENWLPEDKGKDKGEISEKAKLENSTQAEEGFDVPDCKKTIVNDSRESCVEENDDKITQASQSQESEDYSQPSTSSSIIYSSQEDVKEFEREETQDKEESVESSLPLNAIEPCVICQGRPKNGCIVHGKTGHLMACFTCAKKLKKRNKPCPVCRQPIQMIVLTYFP

CCOc1ccc(C2=N[C@H](c3ccc(OCC)cc3)[C@H](c3ccc(OCC)cc3)N2)cc1
Activity (A549 [1]): Active | Activity (A549 [2]): Active | Activity (A549 [3]): Active | Activity (A549 [4]): <=70% | IC50 (A549 [5]): 13.3 µM | Activity (A549 [6]): Active | Activity (A549 [7]): Active

COc1ccc(C2=N[C@H](c3ccc(OC)cc3OC)[C@H](c3ccc(OC)cc3OC)N2)c(OC)c1
Activity (A549 [8]): inactive | Activity (A549 [9]): inactive | Activity (A549 [10]): inactive | Activity (A549 [11]): inactive | Activity (A549 [12]): Active | IC50 (A549 [5]): 9.32 µM | Activity (A549 [7]): inactive

COc1ccccc1C1=N[C@H](c2ccccc2OC)[C@H](c2ccccc2OC)N1
IC50 (A549 [5]): 27.4 µM

Clc1ccccc1C1=N[C@H](c2ccccc2Cl)[C@H](c2ccccc2Cl)N1
solubility [13]: Insoluble | IC50 (A549 [5]): 10.7 µM

Fc1ccc(C2=N[C@H](c3ccc(F)cc3)[C@H](c3ccc(F)cc3)N2)cc1
IC50 (A549 [5]): 108 µM

Brc1ccc(C2=N[C@H](c3ccc(Br)cc3)[C@H](c3ccc(Br)cc3)N2)cc1
solubility [13]: Insoluble | IC50 (A549 [5]): 9.05 µM

COc1cc(C2=N[C@H](c3cc(OC)c(OC)c(OC)c3)[C@H](c3cc(OC)c(OC)c(OC)c3)N2)cc(OC)c1OC
Activity (A549 [14]): inactive

CCOc1c(OC)cccc1C1=N[C@H](c2cccc(OC)c2OCC)[C@H](c2cccc(OC)c2OCC)N1
IC50 (A549 [5]): 24.3 µM

Oc1ccccc1C1=N[C@H](c2ccccc2O)[C@H](c2ccccc2O)N1
IC50 (A549 [5]): 311 µM

COc1cccc(C2=N[C@H](c3cccc(OC)c3OC)[C@H](c3cccc(OC)c3OC)N2)c1OC
inhibition [15]: inactive | IC50 (A549 [5]): 16.2 µM

COc1ccc(C2=N[C@H](c3ccc(OC)c(OC)c3)[C@H](c3ccc(OC)c(OC)c3)N2)cc1OC
IC50 (A549 [5]): 84.7 µM

COc1ccc(C2=N[C@H](c3ccc(O)cc3)[C@H](c3ccc(O)cc3)N2)cc1
Activity (A549 [14]): inactive

Oc1ccc(O)c(C2=N[C@H](c3cc(O)ccc3O)[C@H](c3cc(O)ccc3O)N2)c1
Activity (A549 [14]): inactive

COc1cccc(C2=N[C@H](c3cccc(OC)c3)[C@H](c3cccc(OC)c3)N2)c1
IC50 (A549 [5]): 64.3 µM

COc1ccc(C2=N[C@H](c3ccc(OC)cc3)[C@H](c3ccc(OC)cc3)N2)cc1
Activity (A549 [8]): inactive | Activity (A549 [9]): inactive | Activity (A549 [10]): inactive | Activity (A549 [11]): inactive | Activity (A549 [12]): Active | IC50 (A549 [5]): 43.9 µM | Activity (A549 [7]): inactive

Clc1ccc(C2=N[C@H](c3ccc(Cl)cc3Cl)[C@H](c3ccc(Cl)cc3Cl)N2)c(Cl)c1
IC50 (A549 [5]): 164 µM

COc1ccc(OC)c(C2=N[C@H](c3cc(OC)ccc3OC)[C@H](c3cc(OC)ccc3OC)N2)c1
inhibition [15]: inactive | IC50 (A549 [5]): 21.4 µM

CCOc1ccc(C2=N[C@H](c3ccc(OCC)c(OC)c3)[C@H](c3ccc(OCC)c(OC)c3)N2)cc1OC
IC50 (A549 [5]): 67.5 µM

Clc1ccc(C2=N[C@H](c3ccc(Cl)cc3)[C@H](c3ccc(Cl)cc3)N2)cc1
Activity (A549 [1]): Active | Activity (A549 [2]): Active | Activity (A549 [3]): Active | Activity (A549 [4]): <=70% | IC50 (A549 [5]): 20.2 µM | Activity (A549 [6]): Active | Activity (A549 [7]): Active

Oc1ccc(C2=N[C@H](c3ccc(O)cc3)[C@H](c3ccc(O)cc3)N2)cc1
Activity (A549 [14]): inactive

Clc1ccc(C2=N[C@H](c3ccc(Cl)c(Cl)c3)[C@H](c3ccc(Cl)c(Cl)c3)N2)cc1Cl
IC50 (A549 [5]): 13.7 µM

From ChEMBL document CHEMBL4433238, “2,4,5-Tris(alkoxyaryl)imidazoline derivatives as potent scaffold for novel p53-MDM2 interaction inhibitors: Design, synthesis, and biological evaluation” (Bioorg Med Chem Lett, 2019)
